The test system of this assay is MCF-7 cells. Briefly: cells. Format: cell-based. The settings on record: for Maximal Cell Kill (% fraction of dead cells) / cytotoxicity at 10 µM: 10 μmol/l; for Maximal Agonism (% of E2) / Emax: maximal growth stimulus at any concentration, 4 days; for cytotoxicity at 10 µM / inhibition at 1 µM / Emax: Homo sapiens, MCF7, 96 h; for cytotoxicity at 10 µM: read-out: Maximal Cell Kill (% fraction of dead cells); for inhibition at 1 µM: read-out: Antagonism at 1 μM (% of full antagonism); for Emax: read-out: Maximal Agonism (% of E2); for Killing of MCF-7 cells at the highest investigated concentration (in words): 10 μM, compounds with weak hormonal activity. On the procedure:
Evaluation of Estrogenic and Antiestrogenic Properties of Compounds in MCF-7 Cell Growth Experiments in Vitro
For experiments involving hormone or anti-hormone treatment, the cells in exponential growth phase were precultivated in the absence of estradiol for one day. […] After the incubation period the medium was removed. The exposure to study drugs was started immediately by adding fresh medium with 5% stripped serum. Half of the cells were grown with estradiol, half without estradiol. Study compounds (dissolved in ethanol in 0.01 M concentration and diluted with the growth medium as appropriate) were added. The final concentrations of the compounds were 1, 10, and 100 nM, and 1 and 10 μM. The cells were incubated for four days.
This method allows evaluation of estrogenicity based on the ability of the compounds to stimulate the growth of the estrogen-dependent cells in the absence of estradiol.
Estrogenicity was estimated by comparing the maximal growth stimulus (at any concentration) of study compound as percent from growth stimulus by estradiol (100% stimulus). […] At high concentrations molecules may also show toxicity. Toxicity was estimated as the fraction of dead cells (i.e. 100% means that all cells have died during the exposure).

Where two headings read alike, the source gives them in different places.

As for `CCCCN(C)C(=O)CCCCCCCCCC[C@@H]1Cc2cc(O)ccc2[C@H]2CC[C@]3(C)[C@@H](O)CC[C@H]3[C@H]12` [ICI 164,384, reference compound], for the setting “With estradiol (E2)”, the “Antagonism at 1 μM (% of full antagonism)” value was 100 % of full antagonism and the “Maximal Cell Kill (% fraction of dead cells)” value was 100 % fraction of dead cells. Also, where the note is “Without estradiol (E2)”, the “Maximal Cell Kill (% fraction of dead cells)” value is listed as 100 % fraction of dead cells and the “Maximal Agonism (% of E2)” value is 9 % of E2.

Regarding `ClCCOc1ccc(/C(=C(/CCCl)c2ccc(Cl)cc2)c2ccc(Cl)cc2)cc1` [No. 6, (E)-4-Chloro-1-[4-(2-chloroethoxy)phenyl]-1,2-bis(4-chlorophenyl)-but-1-ene], under “With estradiol (E2)”, the cytotoxicity at 10 µM worked out at 40% and the inhibition at 1 µM is 16%. Under “Without estradiol (E2)”, the cytotoxicity at 10 µM turned out to be 47% and the Emax came out at 0%.

For `ClCCOCCOc1ccc(/C(=C(/CCCl)c2ccccc2)c2ccc(Cl)cc2)cc1` [No. 14], under “With estradiol (E2)”, the “Antagonism at 1 μM (% of full antagonism)” value is given as 27 % of full antagonism and the “Maximal Cell Kill (% fraction of dead cells)” value is reported as 57 % fraction of dead cells. For the same compound, under “Without estradiol (E2)”, the “Maximal Cell Kill (% fraction of dead cells)” value is given as 10 % fraction of dead cells and the “Maximal Agonism (% of E2)” value is 12 % of E2.

Turning to `Fc1ccc(/C(=C(\CCCl)c2ccccc2)c2ccc(OCCOCCCl)cc2)cc1` [No. 15], for the setting “With estradiol (E2)”, the “Antagonism at 1 μM (% of full antagonism)” value is 5 % of full antagonism and the “Maximal Cell Kill (% fraction of dead cells)” value is on record as 9 % fraction of dead cells. For the setting “Without estradiol (E2)”, the “Maximal Cell Kill (% fraction of dead cells)” value is 82 % fraction of dead cells and the “Maximal Agonism (% of E2)” value was 74 % of E2.

Turning to `OCCOc1ccc(C(=C(CCCl)c2ccccc2)c2ccc(OCCO)cc2)cc1` [No. 16, 2-(4-{4-Chloro-1-[4-(2-hydroxyethoxy)phenyl]-2-phenyl-but-1-enyl}phenoxy)1-ethanol], the “Killing of MCF-7 cells at the highest investigated concentration (in words)” value (shortened to “Killing of MCF-7 cells”) was “kill MCF-7 cells (human breast cancer cells) effectively”.

In the case of `ClCC/C(=C(\c1ccccc1)c1ccc(OCCn2ccnc2)cc1)c1ccccc1` [No. 21, (Z)-1-{2-[4-(4-Chloro-1,2-diphenyl-but-1-enyl)phenoxy]ethyl}-1H-imidazole], for the setting “With estradiol (E2)”, the cytotoxicity at 10 µM was determined as 91% and the inhibition at 1 µM came out at 0%. Under “Without estradiol (E2)”, the cytotoxicity at 10 µM was 80% and the Emax was 5%.

Take `CN(CCO)CCOc1ccc(/C(=C(/CCCl)c2ccccc2)c2ccccc2)cc1` [No. 22, (Z)-2-({2-[4-(4-Chloro-1,2-diphenyl-but-1-enyl)phenoxy]ethyl}methylamino)ethanol]: where the note is “With estradiol (E2)”, the cytotoxicity at 10 µM is 41% and the inhibition at 1 µM amounted to 12%. Besides, where the note is “Without estradiol (E2)”, the cytotoxicity at 10 µM is 15% and the Emax stood at 1%.

Regarding `COc1ccc(/C(=C(\CCCl)c2ccc(Cl)cc2)c2ccc(OCCN(C)C)cc2)cc1` [No. 26, (Z)-(2-{4-[4-Chloro-2-(4-chlorophenyl)-1-(4-methoxyphenyl)but-1-enyl]phenoxy}-ethyl)dimethylamine], the “Killing of MCF-7 cells” value is “kill MCF-7 cells (human breast cancer cells) effectively”.

With `COc1ccc(/C(=C(/CCCl)c2ccc(Cl)cc2)c2ccc(OCCN(C)C)cc2)cc1` [No. 27, (E)-(2-{4-[4-Chloro-2-(4-chlorophenyl)-1-(4-methoxyphenyl)but-1-enyl]phenoxy}-ethyl)dimethylamine], the “Killing of MCF-7 cells” value is “kill MCF-7 cells (human breast cancer cells) effectively”.

In the case of `COc1cccc(/C(CCCl)=C(/c2ccccc2)c2ccc(OCCN3CCCCC3)cc2)c1` [No. 28, (Z)-1-(2-{4-[4-Chloro-2-(3-methoxyphenyl)-1-phenylbut-1-enyl]phenoxy}-ethyl)piperidine], under “With estradiol (E2)”, the cytotoxicity at 10 µM worked out at 92% and the inhibition at 1 µM is 18%. Further, for the setting “Without estradiol (E2)”, the cytotoxicity at 10 µM was 86% and the Emax came to 3%.

The values are drawn from US6875775B2, “Triphenylalkene derivatives and their use as selective estrogen receptor modulators” (Hormos Medical Oy LTD, priority 1999, dated 2005).
